Measured values published in the supplement of paper PMC5662764.
± gives the standard deviation of the averaged measurements.

Key:
Assay in all cases: normalised growth rate inhibition (GR value) relative to DMSO control (GR (1 = untreated growth, 0 = cytostasis, <0 = cytotoxic)); higher = less growth inhibition
Settings in all cases: 72 h
[1] = test system: MDAMB231
Method in brief: (§1)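 Six breast cell lines were seeded in 384-well plates and dosed 24 h later with drugs at 0.04–10 µM for 72 h. Cells were stained with Hoechst 33342 and Fixable Far Red Dead Cell Stain, fixed in 3% formaldehyde and imaged on an Operetta; viable cells were counted in Columbus. Normalised growth rate inhibition was computed from counts relative to same-plate DMSO wells and a day-0 plate. Technical plate replicates (generally three) were averaged.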

[2] = test system: BT20
Method in brief: as §1

[3] = test system: MCF10A
Method in brief: as §1

[4] = test system: MCF7
Method in brief: as §1

[5] = test system: HS578T
Method in brief: as §1

[6] = test system: SKBR3
Method in brief: as §1

| Compound | normalised growth rate inhibition ([1]; 0.04 µM) | normalised growth rate inhibition ([1]; 0.12 µM) | normalised growth rate inhibition ([1]; 0.37 µM) | normalised growth rate inhibition ([1]; 1.11 µM) | normalised growth rate inhibition ([1]; 3.33 µM) | normalised growth rate inhibition ([1]; 10 µM) | normalised growth rate inhibition ([2]; 0.04 µM) | normalised growth rate inhibition ([2]; 0.12 µM) | normalised growth rate inhibition ([2]; 0.37 µM) | normalised growth rate inhibition ([2]; 1.11 µM) | normalised growth rate inhibition ([2]; 3.33 µM) | normalised growth rate inhibition ([2]; 10 µM) | normalised growth rate inhibition ([3]; 0.04 µM) | normalised growth rate inhibition ([3]; 0.12 µM) | normalised growth rate inhibition ([3]; 0.37 µM) | normalised growth rate inhibition ([3]; 1.11 µM) | normalised growth rate inhibition ([3]; 3.33 µM) | normalised growth rate inhibition ([3]; 10 µM) | normalised growth rate inhibition ([4]; 0.04 µM) | normalised growth rate inhibition ([4]; 0.12 µM) | normalised growth rate inhibition ([4]; 0.37 µM) | normalised growth rate inhibition ([4]; 1.11 µM) | normalised growth rate inhibition ([4]; 3.33 µM) | normalised growth rate inhibition ([4]; 10 µM) | normalised growth rate inhibition ([5]; 0.04 µM) | normalised growth rate inhibition ([5]; 0.12 µM) | normalised growth rate inhibition ([5]; 0.37 µM) | normalised growth rate inhibition ([5]; 1.11 µM) | normalised growth rate inhibition ([5]; 3.33 µM) | normalised growth rate inhibition ([5]; 10 µM) | normalised growth rate inhibition ([6]; 0.04 µM) | normalised growth rate inhibition ([6]; 0.12 µM) | normalised growth rate inhibition ([6]; 0.37 µM) | normalised growth rate inhibition ([6]; 1.11 µM) | normalised growth rate inhibition ([6]; 3.33 µM) | normalised growth rate inhibition ([6]; 10 µM) |
| --- | --- | --- | --- | --- | --- | --- | --- | --- | --- | --- | --- | --- | --- | --- | --- | --- | --- | --- | --- | --- | --- | --- | --- | --- | --- | --- | --- | --- | --- | --- | --- | --- | --- | --- | --- | --- |
| Cc1cc(Nc2cc(N3CCN(C)CC3)nc(Sc3ccc(NC(=O)C4CC4)cc3)n2)n[nH]1 [tozasertib] | 0.0769 ± 0.023 | 0.056 ± 0.045 | 0.0918 ± 0.037 | 0.0708 ± 0.039 | 0.0979 ± 0.038 | 0.1 ± 0.13 | 0.385 ± 0.12 | 0.0628 ± 0.1 | -0.0205 ± 0.094 | -0.0318 ± 0.12 | -0.0355 ± 0.11 | -0.0179 ± 0.11 | 0.395 ± 0.2 | 0.145 ± 0.087 | 0.124 ± 0.056 | 0.118 ± 0.064 | 0.0967 ± 0.04 | 0.0692 ± 0.053 | 0.0704 ± 0.017 | 0.0656 ± 0.024 | 0.0723 ± 0.044 | 0.0794 ± 0.022 | 0.0768 ± 0.026 | 0.0394 ± 0.0083 | 0.123 ± 0.11 | 0.0776 ± 0.12 | 0.108 ± 0.13 | 0.0732 ± 0.11 | 0.105 ± 0.12 | 0.0498 ± 0.077 | -0.143 ± 0.11 | -0.117 ± 0.076 | -0.0975 ± 0.11 | -0.082 ± 0.1 | -0.0918 ± 0.1 | -0.044 ± 0.1 |
| Cc1ncc(-c2ccnc(Nc3ccc(S(C)(=O)=O)cc3)n2)n1C(C)C [AZD-5438] | 0.849 ± 0.1 | 0.633 ± 0.069 | 0.31 ± 0.071 | -0.0453 ± 0.074 | -0.205 ± 0.15 | -0.308 ± 0.18 | 0.884 ± 0.086 | 0.655 ± 0.14 | 0.354 ± 0.2 | 0.0675 ± 0.11 | -0.117 ± 0.1 | -0.372 ± 0.15 | 0.958 ± 0.02 | 0.797 ± 0.087 | 0.42 ± 0.18 | -0.0201 ± 0.058 | -0.199 ± 0.24 | -0.188 ± 0.19 | 0.798 ± 0.13 | 0.373 ± 0.11 | 0.0311 ± 0.046 | -0.106 ± 0.11 | -0.277 ± 0.036 | -0.438 ± 0.14 | 0.908 ± 0.037 | 0.679 ± 0.063 | 0.274 ± 0.069 | -0.0129 ± 0.054 | -0.104 ± 0.095 | -0.186 ± 0.093 | 0.891 ± 0.036 | 0.628 ± 0.013 | 0.292 ± 0.086 | -0.137 ± 0.12 | -0.28 ± 0.15 | -0.453 ± 0.2 |
| CN(c1ccccc1CNc1nc(Nc2ccc3c(c2)CC(=O)N3)ncc1C(F)(F)F)S(C)(=O)=O | 0.913 ± 0.058 | 0.78 ± 0.082 | 0.49 ± 0.2 | 0.241 ± 0.13 | 0.11 ± 0.13 | -0.197 ± 0.22 | 0.902 ± 0.043 | 0.763 ± 0.035 | 0.414 ± 0.12 | 0.121 ± 0.12 | 0.0389 ± 0.12 | -0.19 ± 0.21 | 0.744 ± 0.029 | 0.501 ± 0.056 | 0.233 ± 0.087 | 0.106 ± 0.019 | 0.0578 ± 0.032 | -0.154 ± 0.16 | 0.742 ± 0.065 | 0.471 ± 0.1 | 0.184 ± 0.078 | 0.0628 ± 0.026 | -0.0235 ± 0.037 | -0.28 ± 0.03 | 0.761 ± 0.021 | 0.694 ± 0.042 | 0.537 ± 0.063 | 0.27 ± 0.068 | 0.181 ± 0.076 | -0.0957 ± 0.088 | 1.04 ± 0.024 | 0.653 ± 0.081 | 0.306 ± 0.017 | 0.0323 ± 0.071 | -0.0178 ± 0.071 | -0.141 ± 0.18 |
| O=C1NC(=O)/C(=C/c2ccc3nccc(-c4ccncc4)c3c2)S1 | 1.03 ± 0.083 | 0.992 ± 0.052 | 0.912 ± 0.049 | 0.513 ± 0.18 | 0.131 ± 0.25 | -0.0544 ± 0.27 | 0.934 ± 0.086 | 0.638 ± 0.15 | 0.192 ± 0.15 | -0.221 ± 0.082 | -0.352 ± 0.1 | -0.44 ± 0.1 | 0.987 ± 0.039 | 0.887 ± 0.11 | 0.608 ± 0.17 | 0.143 ± 0.074 | -0.0425 ± 0.058 | -0.115 ± 0.059 | 0.983 ± 0.059 | 0.844 ± 0.057 | 0.581 ± 0.08 | 0.224 ± 0.075 | -0.0358 ± 0.081 | -0.203 ± 0.081 | 0.948 ± 0.035 | 0.835 ± 0.057 | 0.647 ± 0.083 | 0.372 ± 0.044 | 0.0713 ± 0.13 | -0.118 ± 0.12 | 0.987 ± 0.084 | 0.81 ± 0.14 | 0.541 ± 0.15 | 0.0268 ± 0.1 | -0.291 ± 0.12 | -0.421 ± 0.12 |
| C=CC(=O)Nc1cccc(Nc2nc(NC3CCC(N(C)C)CC3)nc3c2ncn3C(C)C)c1 (configuration not stated) [WZ-3105] | -0.23 ± 0.13 | -0.232 ± 0.15 | -0.235 ± 0.16 | -0.237 ± 0.16 | -0.232 ± 0.12 | -0.132 ± 0.12 | 0.223 ± 0.13 | 0.0547 ± 0.14 | -0.0538 ± 0.17 | -0.207 ± 0.19 | -0.253 ± 0.18 | -0.328 ± 0.19 | 0.523 ± 0.12 | 0.188 ± 0.13 | -0.101 ± 0.14 | -0.224 ± 0.24 | -0.245 ± 0.25 | -0.269 ± 0.24 | -0.317 ± 0.065 | -0.303 ± 0.097 | -0.28 ± 0.11 | -0.254 ± 0.091 | -0.27 ± 0.062 | -0.296 ± 0.05 | -0.121 ± 0.089 | -0.138 ± 0.075 | -0.127 ± 0.097 | -0.135 ± 0.11 | -0.147 ± 0.1 | -0.143 ± 0.14 | -0.298 ± 0.15 | -0.287 ± 0.18 | -0.269 ± 0.18 | -0.273 ± 0.18 | -0.266 ± 0.15 | -0.227 ± 0.19 |
| Cn1cc(C2=C(c3cn(C4CCN(Cc5ccccn5)CC4)c4ccccc34)C(=O)NC2=O)c2ccccc21 [enzastaurin] | 1 ± 0.023 | 1.01 ± 0.035 | 1 ± 0.048 | 1 ± 0.071 | 1.01 ± 0.036 | 1.03 ± 0.079 | 1.01 ± 0.1 | 1.03 ± 0.057 | 1.07 ± 0.043 | 1.07 ± 0.079 | 1.13 ± 0.057 | 1.19 ± 0.062 | 1.006 ± 0.0093 | 1 ± 0.014 | 1 ± 0.018 | 1.02 ± 0.03 | 1.01 ± 0.061 | 0.985 ± 0.11 | 0.978 ± 0.052 | 0.999 ± 0.035 | 1.01 ± 0.035 | 0.946 ± 0.039 | 0.936 ± 0.084 | 0.693 ± 0.31 | 1.02 ± 0.027 | 0.998 ± 0.018 | 1 ± 0.028 | 1.02 ± 0.027 | 1.01 ± 0.019 | 0.935 ± 0.035 | 1.1 ± 0.097 | 1.07 ± 0.085 | 1.1 ± 0.033 | 1.06 ± 0.033 | 1.07 ± 0.056 | 0.958 ± 0.18 |
| Cc1cc(C(=O)NOCCO)c(Nc2ccc(I)cc2F)n(C)c1=O [AZD-8330] | 0.0852 ± 0.054 | 0.0627 ± 0.033 | 0.0584 ± 0.026 | 0.0698 ± 0.013 | 0.0774 ± 0.044 | 0.0933 ± 0.0085 | 0.685 ± 0.018 | 0.741 ± 0.034 | 0.748 ± 0.0083 | 0.739 ± 0.025 | 0.786 ± 0.01 | 0.803 ± 0.022 | 0.0964 ± 0.11 | 0.0999 ± 0.1 | 0.113 ± 0.08 | 0.131 ± 0.068 | 0.142 ± 0.075 | 0.143 ± 0.1 | 0.331 ± 0.077 | 0.33 ± 0.043 | 0.342 ± 0.041 | 0.41 ± 0.049 | 0.405 ± 0.029 | 0.465 ± 0.025 | 0.244 ± 0.066 | 0.212 ± 0.072 | 0.217 ± 0.11 | 0.213 ± 0.11 | 0.217 ± 0.1 | 0.197 ± 0.11 | 0.497 ± 0.12 | 0.64 ± 0.045 | 0.708 ± 0.055 | 0.76 ± 0.064 | 0.778 ± 0.048 | 0.814 ± 0.076 |
